Results from patent US5545672A, “Treatment of insulin resistance and type 2 diabetes mellitus with a thiol protease inhibitor” (The University of Texas System, priority 1994, dated 1996).
Entries after “also recorded” stand apart in the source; their conditions may differ. Where two headings read alike, the source gives them in different places.

How the values were obtained:
[1] = test system: insulin receptor β subunit; conditions: cultured cells chronically treated with high insulin; Knutson, J. Biol. Chem. 266, 1991; cited from earlier work
[2] = test system: lean Zucker rats; conditions: 2.5 mg/kg I.P. every 24 h, data not shown
Excerpt: (§1) The injection protocol was initiated when the rats were 14 weeks old, a time when their insulin resistant state was fully manifest. Blood was drawn from the animals at intervals before the beginning of the injection schedule, and at at least one week intervals after initiating the injections. On the first day of the protocol, the fatty rats weighed an average of 416 grams.

[3] = test system: Zucker fatty rats; conditions: for SERUM TG: Zucker fatty rats
Excerpt: as §1

[4] = test system: 3T3-L1 adipocytes; test: Insulin resistance in adipocytes: 14C-glucose incorporation into cellular lipid (lipogenesis); assay type: cell-based; conditions: for insulin resistance (insulin stimulation of lipogenesis after preincubation): 3T3-L1 adipocytes, 9 h preincubation with insulin 1.7 μM alone or with E-64 100 μM; for cpm INCORPORATED: 9 h pretreatment (insulin 1.7 μM alone, or insulin 1.7 μM + E-64 100 μM); for FOLD STIMULATION: pretreatment as above
Procedure: Intact monolayers of 3T3-L1 adipocytes were preincubated in the absence of insulin (control) or for nine hours in the presence of 1.7 μM insulin to induce cellular insulin resistance. […] Following preincubation, the treated monolayers were extensively washed to remove any insulin present from the preincubation period. The monolayers were then incubated with insulin, 0, 0.05, or 10 nM for 30 minutes, followed by the addition of 14C-glucose at a final concentration of 25 mM. Incorporation of the radiolabeled glucose proceeded for 30 minutes, after which the cells were washed, lysed, and the cellular lipids extracted into chloroform:methanol (2:1). The amount of radiolabel incorporated into the cellular lipid was then quantified by liquid scintillation counting, and the results are shown in Table 2. This assay procedure is described in Tarlow et al., J. Cell Biol., 73:332-353, 1977.

[5] = test system: insulin receptor β subunit; test: Insulin-induced proteolysis of insulin receptor β subunit, quantitative immunoblot of membranes and cytosol; assay type: cell-based; conditions: 3T3-C2 fibroblasts, 4 h; for β' FRAGMENT % IN CYTOSOL: normalized to maximum β' after eight hours of insulin
Procedure: Cell monolayers were scraped into 10 mM triethanolamine, 10 mM acetic acid, 1 mM EDTA, pH 7.4. The cells were disrupted in a Dounce homogenizer and subjected to centrifugation at 265,000×g, 70 min. at 4° C. The pellet was retained as cellular membranes and the supernatant was collected as the cytosolic fraction.
The cellular membranes were detergent-extracted and the extracts were subjected to SDS polyacrylamide gel electrophoresis on a 7.5% gel to resolve the intact β subunit (approximate mass 92 kDa).
Transfer of the cellular proteins from the 7.5% acrylamide gel to nitrocellulose was conducted at 18 V for 18 h, and the intact β subunit and β' fragment were detected as previously described (Knutson and Buck, Arch. Biochem. Biophys., 285:197-204, 1991). Briefly, following transfer, the nitrocellulose was blocked by incubation for 1 h with blot buffer (50 mM Tris, 0.2M NaCl, pH 8) containing 4% non-fat dry milk. Following blocking, the nitrocellulose was incubated with an anti-peptide antibody which specifically recognizes the carboxy-terminal 16 amino acid residues of the insulin receptor β subunit. This domain is contained in both the intact β subunit and the β' fragment. This antibody has been fully characterized and affinity purified (Knutson and Buck, ibid.). The antibody concentration was 5 μg/ml in blot buffer containing 1% non-fat dry milk, and the incubation was allowed to proceed for 2 h at room temperature. The unbound antibody was then removed from the nitrocellulose by 3 washes with blot buffer containing 1% non-fat dry milk and 0.05% Tween-20. The nitrocellulose was then incubated with ^125 I-protein A, 0.1 μCi/ml, with the blot buffer containing 1% non-fat dry milk, for 1 h at room temperature. Following a final 5 washes of the nitrocellulose with blot buffer-1% dry milk-0.05% Tween-20, the nitrocellulose was exposed to X-ray film. Autoradiographic intensities were quantitated by densitometric scanning.
Cytosolic β' fragment (approximate mass 61 kDa) was isolated by subjecting the […] to high speed centrifugation, removing the supernatant, subjecting the supernatant to SDS polyacrylamide gel electrophoresis on a 7.5% gel, transferring the cytosolic proteins to nitrocellulose, and detecting the cytosolic β' fragment by quantitative immunoblot (Western blot) analysis as described above. The β' fragment data was normalized to the maximum level of β' fragment detected after eight hours of insulin treatment. The above-described procedure is as described in Knutson, V. P., J. Biol. Chem., 266:15656-15662 (1991).

[6] = agent alone (insulin 1.7 μM; leupeptin 10 μg/ml; E-64 100 μM), control 100 ± 13

Compound	insulin resistance (insulin stimulation of lipogenesis after preincubation) [4]	cpm INCORPORATED ([4]; then insulin 0 nM) [cpm]	cpm INCORPORATED ([4]; then insulin 0.05 nM) [cpm]	cpm INCORPORATED ([4]; then insulin 10 nM) [cpm]	FOLD STIMULATION ([4]; insulin 0 nM (baseline)) [fold]	FOLD STIMULATION ([4]; insulin 0.05 nM) [fold]	FOLD STIMULATION ([4]; insulin 10 nM) [fold]	β SUBUNIT % IN MEMBRANES [5, 6] [%]	β' FRAGMENT % IN CYTOSOL ([5]; agent alone, control 8 ± 5)	β' FRAGMENT % IN CYTOSOL ([5]; inhibitor + insulin 1.7 μM)	also measured
CC(C)C[C@H](NC(=O)[C@H]1O[C@@H]1C(=O)O)C(=O)NCCCCN=C(N)N [E-64, L-transepoxysuccinyl-leucylamido (4-guanidino) butane]	ameliorated	600	1100	3100	1	1.8	5.2	143 ± 7	Trace	Not detectable; also recorded: non-detectable	production of the insulin receptor fragment β' [1]: inhibited; effect on triglyceride levels in lean rats [2]: no effect; effect on the increase in triglyceride levels found in control Zucker fatty rats ([3]; 2.5 mg/kg I.P. every 24 h): prevented the increase; effect on insulin resistant state in Zucker fatty rats ([3]; 2.5 mg/kg I.P. every 24 h, 90 days): reduced but did not reverse; SERUM TG ([3]; 2.5 mg/kg I.P. every 24 h, day 28, n = 3): 798 ± 269 mg/dL; SERUM TG ([3]; 2.5 mg/kg I.P. every 24 h, day 56, n = 3): 1045 ± 443 mg/dL; SERUM TG ([3]; 2.5 mg/kg I.P. every 24 h, day 89, n = 3): 1093 ± 301 mg/dL; SERUM TG ([3]; day -4 of protocol (before injections), n = 3): 1009 ± 157 mg/dL
CC(=O)N[C@@H](CC(C)C)C(=O)N[C@@H](CC(C)C)C(=O)N[C@H](C=O)CCCNC(=N)N [Leupeptin, leupeptin]	–	–	–	–	–	–	–	97 ± 7	Trace	Not detectable	β SUBUNIT % IN MEMBRANES ([5]; inhibitor + insulin 1.7 μM (leupeptin 10 μg/ml; E-64 100 μM)): 120 ± 17%; β SUBUNIT % IN MEMBRANES ([5]; inhibitor + insulin 1.7 μM (leupeptin 10 μg/ml; E-64 100 μM), listed as leupeptin): prevented insulin-induced loss; β' FRAGMENT % IN CYTOSOL ([5]; inhibitor + insulin 1.7 μM, listed as leupeptin): prevented generation
insulin	no subsequent stimulation of lipogenesis	1600	1900	1800	1	1.2	1.1	80 ± 7	62 ± 6%	–	β SUBUNIT % IN MEMBRANES ([5]; agent alone (insulin 1.7 μM; leupeptin 10 μg/ml; E-64 100 μM), control 100 ± 13, listed as insulin): decreased; β' FRAGMENT % IN CYTOSOL ([5]; agent alone, control 8 ± 5, listed as insulin): increased
